What was measured:
[1] = target: Dopamine D3 (Homo sapiens, UniProt P35462); test: Dopamine D3 binding
Protocol: Curves are evaluated using a 4-parameter logistic nonlinear equation to obtain the concentration of competitor causing 50% inhibition of radioligand binding (IC50). Equilibrium dissociation constants (Ki) are calculated according to the equation Ki=IC50/(1+L/Kd), where L equals the concentration of radioligand used in the experiment and Kd equals the equilibrium dissociation constant of the radioligand for the receptor, determined from standard saturation analysis or homologous competition experiments. Reported values for Ki, where n values are indicated, are shown as geometric mean±the standard error of the mean (SEM), with the number of replicate determinations indicated by n. Geometric means are calculated by the equation GeoMean=10̂(Average(log Ki 1+log Ki 2+ . . . log Ki n)/[…]).
Further, the compounds of the invention may be tested in binding assays and functional activity assays by well known methods for other physiologically important receptors such as, but not limited to, the hERG channel, other serotonin receptors (specifically 5-HT1B receptors, lack of agonist activity at 5-HT2B receptors, 5-HT2C, 5-HT5, 5-HT6, and 5-HT7 receptors), dopaminergic receptors (specifically D1, D2, and D3), H1 receptors, GABAA receptors, adrenergic receptors and monoamine transporters.

[2] = test system: sleep and locomotor activity of rats; test: Sleep and behavioral monitoring in rats (EEG, EMG, motion); assay type: in vivo; details: rat; for Rebound Insomnia, Adj. Mean: NREM + REM sleep in 7th-9th hours post-treatment; for Rebound Insomnia, Adj. Mean / REM inhibition, Adj. Mean / Cumulative NREM sleep, Adj. Mean / Cumulative Total sleep, Adj. Mean / Locomotor Activity Intensity, Adj. Mean: difference from vehicle; for REM inhibition, Adj. Mean: REM sleep in first 12 hr. post-treatment; for Average Sleep Bout, Adj. Mean / Longest Sleep Bout / Cumulative NREM sleep, Adj. Mean / Cumulative Total sleep, Adj. Mean / Locomotor Activity Intensity, Adj. Mean: first 6 hr. post-treatment
Excerpt: Sleep and behavioral monitoring in rats: The compounds of the present invention may be tested in rats for their ability to increase the amount of sleep or decrease sleep interruption or both without undesired effects such as inhibition of REM sleep, waking motor impairment, and/or rebound insomnia. Test animals are continuously monitored by electro-encephalograms (EEG), electromyograms (EMG), and motion to measure cumulative nonREM sleep, cumulative total sleep, average sleep bout duration, longest sleep bout duration, rebound insomnia, REM sleep inhibition and locomotor activity intensity during wakefulness. Methods for such studies are known in the art (see for example methods described in Edgar D M, Seidel W F. Modafinil induces wakefulness without intensifying motor activity or subsequent rebound hypersomnolence in the rat. J Pharmacology & Experimental Therapeutics 1997; 283: 757-769; van Gelder R N, Edgar D M, Dement W C. Real-time automated sleep scoring: validation of a microcomputer-based system for mice. Sleep 1991, 14: 48-55; and Gross B A, Walsh C M, Turakhia A A, Booth V, Mashour G A, Poe G R. Open-source logic-based automated sleep scoring software using electrophysiological recordings in rats. J Neurosci Methods. 2009; 184(1):10-8.) Studies are conducted as follows:
Animal preparation. Adult, male Wistar rats (approximately 270-300 g at time of surgery) are surgically fitted for chronic recording of EEG, EMG, and motion as follows: Rats are surgically prepared with a cranial implant consisting of four stainless steel screws for EEG recording (two frontal [3.9 mm anterior from bregma, and ±2.0 mm mediolaterally] and two occipital [6.4 mm posterior from bregma, ±5.5 mm mediolaterally]), and with two Teflon-coated stainless steel wires for EMG recording (positioned under the nuchal trapezoid muscles). All leads are soldered to a miniature connector (Microtech, Boothwyn, Pa.) prior to surgery. The implant assembly is affixed to the skull by the combination of the stainless steel EEG recording screws, cyanoacrylate applied between the implant connector and skull, and dental acrylic. Locomotor activity is monitored via a miniature transmitter (Minimitter PDT4000G, Philips Respironics, Bend, Oreg.) surgically placed into the abdomen. At least 3 weeks are allowed for recovery.
Recording environment. Each rat is housed individually within a microisolator cage modified with an inserted polycarbonate filter-top riser to allow more vertical headroom. A flexible cable that minimally restricts movement is connected at one end to a commutator afixed to the cage top and at the other end to the animal's cranial implant. Each cage is located within separate, ventilated compartments of a stainless steel sleep-wake recording chamber. Food and water are available ad libitum and the ambient temperature is maintained at about 23±1° C. A 24-hr light-dark cycle (LD 12:12) using fluorescent light is maintained throughout the study. Relative humidity averages approximately 50%. Animals are undisturbed for at least 30 hrs before and after each treatment.
Study design and dosing. The vehicle (placebo, methylcellulose 15 centipoise 0.25% in water) or one of the test compound dose levels is administered orally at 1 mL/kg pseudo-randomly such that no rat receives the same treatment twice, and no rat receives more than two of the 8 treatments in any one study. Each rat is removed from its cage for about a minute to be weighed and treated. At least 6 days “washout” period precede and follow each treatment.
Data collection. […]

[3] = PO, 6 hr. after treatment, 4 parameter logistic regression

Sequence of Dopamine D3 (P35462 whole entry): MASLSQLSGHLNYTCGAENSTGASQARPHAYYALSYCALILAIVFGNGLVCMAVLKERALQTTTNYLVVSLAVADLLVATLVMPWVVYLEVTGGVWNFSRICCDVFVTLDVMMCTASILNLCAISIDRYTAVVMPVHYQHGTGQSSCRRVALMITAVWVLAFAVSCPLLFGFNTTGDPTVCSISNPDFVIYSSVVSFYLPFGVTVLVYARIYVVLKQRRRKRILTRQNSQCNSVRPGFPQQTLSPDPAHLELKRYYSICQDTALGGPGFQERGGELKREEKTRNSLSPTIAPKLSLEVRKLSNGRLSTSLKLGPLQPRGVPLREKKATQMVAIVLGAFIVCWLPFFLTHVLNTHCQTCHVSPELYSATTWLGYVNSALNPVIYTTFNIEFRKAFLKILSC

## Cc1ccc2c(c1)Oc1sc(SC(C)C)cc1C(N1CCN(CC(C)(C)C(=O)O)CC1)=N2 [Example 1, 3-[4-(2-isopropylsulfanyl-8-methyl-thieno[2,3-b][1,5]benzoxazepin-4-yl)piperazin-1-yl]-2,2-dimethyl-propanoic acid]
[1]
  Ki: > 5.47 µM
[2]; 0.1 mg/kg PO
  Rebound Insomnia, Adj. Mean: -0.4 min
  REM inhibition, Adj. Mean: 0.5 min
  Average Sleep Bout, Adj. Mean: 1.09 n-fold increase over vehicle controls
  Longest Sleep Bout: 0.85 n-fold increase over vehicle controls
  Cumulative NREM sleep, Adj. Mean: 14.6 min
  Cumulative Total sleep, Adj. Mean: 13.1 min
  Locomotor Activity Intensity, Adj. Mean: −1.31 LMA counts per minute of EEG-defined wakefulness
[2]; 0.25 mg/kg PO
  Rebound Insomnia, Adj. Mean: -1.0 min
  REM inhibition, Adj. Mean: 1.4 min
  Average Sleep Bout, Adj. Mean: 1.32 n-fold increase over vehicle controls
  Longest Sleep Bout: 1.49 n-fold increase over vehicle controls
  Cumulative NREM sleep, Adj. Mean: 17.8 min
  Cumulative Total sleep, Adj. Mean: 21.1 min
  Locomotor Activity Intensity, Adj. Mean: −1.22 LMA counts per minute of EEG-defined wakefulness
[2]; 0.5 mg/kg PO
  Rebound Insomnia, Adj. Mean: 4.4 min
  REM inhibition, Adj. Mean: 6.6 min
  Average Sleep Bout, Adj. Mean: 1.75 n-fold increase over vehicle controls
  Longest Sleep Bout: 1.79 n-fold increase over vehicle controls
  Cumulative NREM sleep, Adj. Mean: 24.1 min
  Cumulative Total sleep, Adj. Mean: 28.2 min
  Locomotor Activity Intensity, Adj. Mean: −1.49 LMA counts per minute of EEG-defined wakefulness
[2]; 1 mg/kg PO
  Rebound Insomnia, Adj. Mean: 1.5 min
  REM inhibition, Adj. Mean: 5.6 min
  Average Sleep Bout, Adj. Mean: 1.71 n-fold increase over vehicle controls
  Longest Sleep Bout: 1.89 n-fold increase over vehicle controls
  Cumulative NREM sleep, Adj. Mean: 30.0 min
  Cumulative Total sleep, Adj. Mean: 31.4 min
  Locomotor Activity Intensity, Adj. Mean: −4.04 LMA counts per minute of EEG-defined wakefulness
  apparent LMI impairment (in words): statistically significant at that dose
[2]; 3 mg/kg PO
  Rebound Insomnia, Adj. Mean: 8.8 min
  REM inhibition, Adj. Mean: -1.4 min
  Average Sleep Bout, Adj. Mean: 1.75 n-fold increase over vehicle controls
  Longest Sleep Bout: 2.17 n-fold increase over vehicle controls
  Cumulative NREM sleep, Adj. Mean: 31.5 min
  Cumulative Total sleep, Adj. Mean: 32.8 min
  Locomotor Activity Intensity, Adj. Mean: −1.86 LMA counts per minute of EEG-defined wakefulness
[2]; 10 mg/kg PO
  Rebound Insomnia, Adj. Mean: 2.5 min
  REM inhibition, Adj. Mean: -4.4 min
  Average Sleep Bout, Adj. Mean: 2.01 n-fold increase over vehicle controls
  Longest Sleep Bout: 2.29 n-fold increase over vehicle controls
  Cumulative NREM sleep, Adj. Mean: 38.3 min
  Cumulative Total sleep, Adj. Mean: 39.1 min
  Locomotor Activity Intensity, Adj. Mean: −1.90 LMA counts per minute of EEG-defined wakefulness
[2]; 20 mg/kg PO
  Rebound Insomnia, Adj. Mean: 2.1 min
  REM inhibition, Adj. Mean: -9.3 min
  Average Sleep Bout, Adj. Mean: 1.88 n-fold increase over vehicle controls
  Longest Sleep Bout: 1.90 n-fold increase over vehicle controls
  Cumulative NREM sleep, Adj. Mean: 40.2 min
  Cumulative Total sleep, Adj. Mean: 38.0 min
  Locomotor Activity Intensity, Adj. Mean: −0.59 LMA counts per minute of EEG-defined wakefulness
  REM sleep inhibition versus threshold value of -10 min. (in words): exceeded the threshhold value
[2]; PO
  effect on cumulative NREM sleep time and cumulative total sleep time (in words): statistically significant increase
[2]; [3]
  Estimated efficacy dose, Average sleep bout (1.5-fold increase): 0.33 mg/kg
  Estimated efficacy dose, Longest sleep bout (1.75-fold increase): 0.45 mg/kg
  Estimated efficacy dose, NREM accumulation = 30 min.: 1.5 mg/kg
  Estimated efficacy dose, Total sleep accumulation = 25 min.: 0.39 mg/kg
[2]; PO, at up to 10 times the conservative efficacy dose
  rebound insomnia or REM sleep inhibition (in words): without statistically significant rebound insomnia or REM sleep inhibition
